# Reference: patent publication US20240132484A1, “BROAD SPECTRUM ANTIVIRAL COMPOUNDS TARGETING THE SKI COMPLEX” (priority 2020, published 2024)
# Several values for one entry are separate records, joined by “and”; a condition that tells them apart may be missing. Identical values can stand only once. Like-named read-outs stand apart in the source and are kept apart here.
# Columns and labels:
# SARS2 = format: cell-based, SARS-CoV-2; conditions: for Infection Data: Percentage Infection Relative to Appropriate DMSO Control: avg background subtraction, replicate wells; for Infection Data: Average, Mean: average of Exp 1-3 (SMW475, SMW477, SMW478), n 9
# cells (nuclei count) = conditions: for Toxicity Data: Average, Mean: average of Exp 1-3 (SMW475, SMW477, SMW478), n 9
smiles,measurement,setting,value
CN(C)CCN(Cc1ccsc1)Cc1cccc(-c2ccsc2)c1 [SILCS20],Infection Data: Percentage Infection Relative to Appropriate DMSO Control,"SARS2; 1 uM, Exp 1 (SMW475)",104.96% and 108.84% and 98.09%
same,Infection Data: Percentage Infection Relative to Appropriate DMSO Control,"SARS2; 1 uM, Exp 2 (SMW477)",151.25% and 151.34% and 136.14%
same,Infection Data: Percentage Infection Relative to Appropriate DMSO Control,"SARS2; 1 uM, Exp 3 (SMW478)",92.92% and 94.78% and 98.52%
same,"Infection Data: Average, Mean",SARS2; 1 uM,115.20%
same,Infection Data: Percentage Infection Relative to Appropriate DMSO Control,"SARS2; 5 uM, Exp 1 (SMW475)",71.77% and 48.90% and 69.38%
same,Infection Data: Percentage Infection Relative to Appropriate DMSO Control,"SARS2; 5 uM, Exp 2 (SMW477)",133.79% and 116.24% and 114.33%
same,Infection Data: Percentage Infection Relative to Appropriate DMSO Control,"SARS2; 5 uM, Exp 3 (SMW478)",62.84% and 53.65% and 64.98%
same,"Infection Data: Average, Mean",SARS2; 5 uM,81.76%
same,Infection Data: Percentage Infection Relative to Appropriate DMSO Control,"SARS2; 10 uM, Exp 1 (SMW475)",45.14% and 27.86% and 26.38%
same,Infection Data: Percentage Infection Relative to Appropriate DMSO Control,"SARS2; 10 uM, Exp 2 (SMW477)",76.01% and 46.79% and 30.46%
same,Infection Data: Percentage Infection Relative to Appropriate DMSO Control,"SARS2; 10 uM, Exp 3 (SMW478)",30.07% and 13.27% and 56.68%
same,"Infection Data: Average, Mean",SARS2; 10 uM,39.18%
same,Infection Data: Percentage Infection Relative to Appropriate DMSO Control,"SARS2; 25 uM, Exp 1 (SMW475)",13.25% and 8.47% and 6.46%
same,Infection Data: Percentage Infection Relative to Appropriate DMSO Control,"SARS2; 25 uM, Exp 2 (SMW477)",9.75% and 7.72% and 7.01%
same,Infection Data: Percentage Infection Relative to Appropriate DMSO Control,"SARS2; 25 uM, Exp 3 (SMW478)",6.76% and 9.52% and 8.68%
same,"Infection Data: Average, Mean",SARS2; 25 uM,8.63%
same,Infection Data: Percentage Infection Relative to Appropriate DMSO Control,"SARS2; 50 uM, Exp 1 (SMW475)",−0.47% and 0.47% and 1.44%
same,Infection Data: Percentage Infection Relative to Appropriate DMSO Control,"SARS2; 50 uM, Exp 2 (SMW477)",−0.57% and −0.19% and −1.43%
same,Infection Data: Percentage Infection Relative to Appropriate DMSO Control,"SARS2; 50 uM, Exp 3 (SMW478)",125.56% and 159.57% and 149.88%
same,"Infection Data: Average, Mean",SARS2; 50 uM,48.15%
same,Percentage Inhibition Average 1 μM,"SARS2; SARS2, 1 μM",−15.20%
same,Screening data (Relative infection to DMSO controls) Average 1 μM,"SARS2; SARS2, 1 μM, 100=DMSO control",115.20
same,Percentage Inhibition Average 5 μM,"SARS2; SARS2, 5 μM",18.24%
same,Screening data (Relative infection to DMSO controls) Average 5 μM,"SARS2; SARS2, 5 μM, 100=DMSO control",81.76
same,Percentage Inhibition Average 10 μM,"SARS2; SARS2, 10 μM",60.82%
same,Screening data (Relative infection to DMSO controls) Average 10 μM,"SARS2; SARS2, 10 μM, 100=DMSO control",39.18
same,Percentage Inhibition Average 25 μM,"SARS2; SARS2, 25 μM",91.37%
same,Screening data (Relative infection to DMSO controls) Average 25 μM,"SARS2; SARS2, 25 μM, 100=DMSO control",8.63
same,Percentage Inhibition Average 50 μM,"SARS2; SARS2, 50 μM",51.85%
same,Screening data (Relative infection to DMSO controls) Average 50 μM,"SARS2; SARS2, 50 μM, 100=DMSO control",48.15
same,Average (relative infection to DMSO over the 5 tested concentrations),"SARS2; SARS2, average over 1 to 50 uM, 100=DMSO control",58.58
same,"Toxicity Data: Average, Mean",cells (nuclei count); 1 uM,96.85%
same,"Relative cell count to DMSO controls, Average 1 μM","cells (nuclei count); 1 μM, toxicity data, 100=DMSO control",96.85
same,"Toxicity Data: Average, Mean",cells (nuclei count); 5 uM,116.85%
same,"Relative cell count to DMSO controls, Average 5 μM","cells (nuclei count); 5 μM, toxicity data, 100=DMSO control",116.85
same,"Toxicity Data: Average, Mean",cells (nuclei count); 10 uM,138.88%
same,"Relative cell count to DMSO controls, Average 10 μM","cells (nuclei count); 10 μM, toxicity data, 100=DMSO control",138.88
same,"Toxicity Data: Average, Mean",cells (nuclei count); 25 uM,78.06%
same,"Relative cell count to DMSO controls, Average 25 μM","cells (nuclei count); 25 μM, toxicity data, 100=DMSO control",78.06
same,"Toxicity Data: Average, Mean",cells (nuclei count); 50 uM,7.37%
same,"Relative cell count to DMSO controls, Average 50 μM","cells (nuclei count); 50 μM, toxicity data, 100=DMSO control",7.37
same,"Relative cell count to DMSO controls, Average (for correlation analysis)",cells (nuclei count); average value over the 5 tested concentrations (1 to 50 uM),87.60
